In ChEMBL document CHEMBL4507261, “Data for DCP probe A-192621” (2021):

Key:
[1] = molecular target: Aurora kinase A (Homo sapiens) (UniProt O14965); conditions: Compound concentration 1000.0 nM
[2] = molecular target: Mitogen-activated protein kinase 10 (Homo sapiens) (UniProt P53779); conditions: Compound concentration 1000.0 nM
[3] = molecular target: Tyrosine-protein kinase Lyn (Homo sapiens) (UniProt P07948); conditions: Compound concentration 1000.0 nM
[4] = molecular target: Ribosomal protein S6 kinase alpha-5 (Homo sapiens) (UniProt O75582); conditions: Compound concentration 1000.0 nM
Chain of Ribosomal protein S6 kinase alpha-5 (Homo sapiens) (O75582 whole entry, looked up): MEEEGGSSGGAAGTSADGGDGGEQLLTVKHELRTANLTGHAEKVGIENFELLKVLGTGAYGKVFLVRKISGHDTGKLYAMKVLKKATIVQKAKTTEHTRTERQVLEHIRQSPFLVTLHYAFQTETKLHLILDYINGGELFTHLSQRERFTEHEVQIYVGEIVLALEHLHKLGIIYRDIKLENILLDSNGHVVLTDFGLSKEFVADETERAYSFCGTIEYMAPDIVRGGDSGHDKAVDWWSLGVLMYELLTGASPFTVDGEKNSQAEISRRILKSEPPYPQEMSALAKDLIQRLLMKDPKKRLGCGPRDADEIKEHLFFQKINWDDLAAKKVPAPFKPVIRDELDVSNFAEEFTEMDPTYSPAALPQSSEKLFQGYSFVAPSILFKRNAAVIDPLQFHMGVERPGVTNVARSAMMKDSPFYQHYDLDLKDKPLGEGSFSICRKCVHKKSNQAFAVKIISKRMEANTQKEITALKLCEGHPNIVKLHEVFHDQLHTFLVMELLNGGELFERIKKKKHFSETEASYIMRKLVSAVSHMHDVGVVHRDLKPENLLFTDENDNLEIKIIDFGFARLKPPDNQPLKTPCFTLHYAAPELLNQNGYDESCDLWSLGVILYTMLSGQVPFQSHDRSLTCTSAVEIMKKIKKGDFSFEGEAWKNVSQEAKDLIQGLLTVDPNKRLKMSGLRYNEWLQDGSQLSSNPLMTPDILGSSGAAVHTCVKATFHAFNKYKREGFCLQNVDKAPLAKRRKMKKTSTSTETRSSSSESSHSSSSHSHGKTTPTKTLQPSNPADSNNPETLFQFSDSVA

[5] = molecular target: Ribosomal protein S6 kinase alpha-3 (Homo sapiens) (UniProt P51812); conditions: Compound concentration 1000.0 nM
Chain of Ribosomal protein S6 kinase alpha-3 (Homo sapiens) (P51812 whole entry): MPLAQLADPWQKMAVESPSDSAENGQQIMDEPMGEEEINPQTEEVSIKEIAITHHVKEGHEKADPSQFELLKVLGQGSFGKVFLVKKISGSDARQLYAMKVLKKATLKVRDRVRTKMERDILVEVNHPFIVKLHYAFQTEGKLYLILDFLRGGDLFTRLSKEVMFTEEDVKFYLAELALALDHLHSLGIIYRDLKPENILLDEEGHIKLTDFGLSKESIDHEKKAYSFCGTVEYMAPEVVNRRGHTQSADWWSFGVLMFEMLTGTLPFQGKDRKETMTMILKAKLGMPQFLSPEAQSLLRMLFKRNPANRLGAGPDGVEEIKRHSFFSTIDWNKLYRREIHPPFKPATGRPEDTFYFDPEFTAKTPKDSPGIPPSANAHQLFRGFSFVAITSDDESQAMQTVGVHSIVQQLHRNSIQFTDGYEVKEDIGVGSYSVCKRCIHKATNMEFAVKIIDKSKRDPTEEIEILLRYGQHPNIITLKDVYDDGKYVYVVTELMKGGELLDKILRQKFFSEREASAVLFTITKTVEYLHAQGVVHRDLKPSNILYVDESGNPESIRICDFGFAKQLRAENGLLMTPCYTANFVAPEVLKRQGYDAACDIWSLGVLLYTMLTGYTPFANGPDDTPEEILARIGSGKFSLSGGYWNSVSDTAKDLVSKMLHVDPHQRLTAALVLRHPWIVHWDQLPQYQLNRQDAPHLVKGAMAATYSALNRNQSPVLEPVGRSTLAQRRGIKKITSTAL

[6] = molecular target: Serine/threonine-protein kinase WNK1 (Homo sapiens) (UniProt Q9H4A3); conditions: Compound concentration 1000.0 nM
[7] = molecular target: Serine/threonine-protein kinase 3 (Homo sapiens) (UniProt Q13188); conditions: Compound concentration 1000.0 nM
[8] = molecular target: Myosin-IIIa (Homo sapiens) (UniProt Q8NEV4); conditions: Compound concentration 1000.0 nM
[9] = molecular target: Serine/threonine-protein kinase DCLK3 (Homo sapiens) (UniProt Q9C098); conditions: Compound concentration 1000.0 nM
[10] = molecular target: Membrane-associated tyrosine- and threonine-specific cdc2-inhibitory kinase (Homo sapiens) (UniProt Q99640); conditions: Compound concentration 1000.0 nM
Chain of Membrane-associated tyrosine- and threonine-specific cdc2-inhibitory kinase (Homo sapiens) (Q99640 whole entry, canonical isoform): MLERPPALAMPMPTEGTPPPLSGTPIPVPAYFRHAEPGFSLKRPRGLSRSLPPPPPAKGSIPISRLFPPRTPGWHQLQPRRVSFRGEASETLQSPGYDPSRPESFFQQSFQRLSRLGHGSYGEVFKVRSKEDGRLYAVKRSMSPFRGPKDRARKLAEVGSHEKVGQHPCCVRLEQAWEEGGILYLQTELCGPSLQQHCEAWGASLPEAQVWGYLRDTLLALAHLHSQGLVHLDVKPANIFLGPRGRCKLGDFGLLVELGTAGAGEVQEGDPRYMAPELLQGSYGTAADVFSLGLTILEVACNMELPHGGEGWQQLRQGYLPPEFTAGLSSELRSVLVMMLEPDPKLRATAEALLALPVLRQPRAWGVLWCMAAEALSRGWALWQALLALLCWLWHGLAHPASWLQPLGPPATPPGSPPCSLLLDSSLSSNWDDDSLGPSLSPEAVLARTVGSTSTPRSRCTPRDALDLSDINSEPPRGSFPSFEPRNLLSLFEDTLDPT

[11] = test system: Phosphatidylinositol 4,5-bisphosphate 3-kinase catalytic subunit alpha isoform (Homo sapiens), P42336 [E542K]; conditions: Compound concentration 1000.0 nM
[12] = molecular target: Adenosine receptor A1 (Homo sapiens) (UniProt P30542); experiment: A1 (h) Eurofins-Cerep binding assay; parameters: ligand concentration 1 nM; conditions: filed as antagonist, Compound concentration 10.0 uM
Chain of Adenosine receptor A1 (Homo sapiens) (P30542 whole entry): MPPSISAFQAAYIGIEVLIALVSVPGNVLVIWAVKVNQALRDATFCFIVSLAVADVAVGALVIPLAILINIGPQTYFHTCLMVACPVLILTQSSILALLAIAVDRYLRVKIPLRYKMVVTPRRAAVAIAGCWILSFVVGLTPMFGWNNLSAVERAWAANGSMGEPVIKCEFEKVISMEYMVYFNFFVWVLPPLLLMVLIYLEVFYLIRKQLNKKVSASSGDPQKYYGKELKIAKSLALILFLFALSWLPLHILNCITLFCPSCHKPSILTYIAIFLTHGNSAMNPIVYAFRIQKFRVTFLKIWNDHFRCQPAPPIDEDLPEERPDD

[13] = test system: Mast/stem cell growth factor receptor Kit (Homo sapiens), P10721 [V559D,V654A]; conditions: Compound concentration 1000.0 nM
Chain of Mast/stem cell growth factor receptor Kit (Homo sapiens), P10721 [V559D,V654A] (P10721 whole entry V559D/V654A): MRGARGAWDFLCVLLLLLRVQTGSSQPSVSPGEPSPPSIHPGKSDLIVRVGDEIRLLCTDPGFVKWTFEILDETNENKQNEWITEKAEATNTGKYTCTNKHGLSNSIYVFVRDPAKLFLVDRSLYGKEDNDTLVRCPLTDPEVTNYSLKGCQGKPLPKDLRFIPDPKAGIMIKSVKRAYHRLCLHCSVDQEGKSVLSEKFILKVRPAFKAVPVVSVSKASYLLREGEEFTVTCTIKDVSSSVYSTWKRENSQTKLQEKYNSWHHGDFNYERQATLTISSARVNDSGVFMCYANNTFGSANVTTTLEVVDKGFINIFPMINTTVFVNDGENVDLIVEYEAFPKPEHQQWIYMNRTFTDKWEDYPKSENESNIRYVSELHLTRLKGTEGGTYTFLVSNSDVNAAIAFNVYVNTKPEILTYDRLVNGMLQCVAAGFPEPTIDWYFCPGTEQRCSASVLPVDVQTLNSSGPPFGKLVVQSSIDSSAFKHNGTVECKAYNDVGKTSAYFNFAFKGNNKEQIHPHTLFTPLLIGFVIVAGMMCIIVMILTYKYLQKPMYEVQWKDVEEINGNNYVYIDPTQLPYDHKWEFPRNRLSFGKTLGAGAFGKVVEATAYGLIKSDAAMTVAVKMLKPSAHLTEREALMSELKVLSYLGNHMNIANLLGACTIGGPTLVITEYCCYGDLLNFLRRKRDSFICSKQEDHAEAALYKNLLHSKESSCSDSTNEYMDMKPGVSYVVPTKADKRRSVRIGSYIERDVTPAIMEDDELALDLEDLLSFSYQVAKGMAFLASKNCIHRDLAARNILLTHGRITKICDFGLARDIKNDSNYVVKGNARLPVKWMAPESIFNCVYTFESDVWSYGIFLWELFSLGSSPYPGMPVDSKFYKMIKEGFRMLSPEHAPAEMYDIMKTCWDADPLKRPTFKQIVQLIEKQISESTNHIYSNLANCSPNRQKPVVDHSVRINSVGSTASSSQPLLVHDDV

[14] = molecular target: Tyrosine-protein kinase JAK3 (Homo sapiens) (UniProt P52333); conditions: Compound concentration 1000.0 nM
[15] = molecular target: Calcitonin-gene-related peptide receptor, CALCRL/RAMP1 (Homo sapiens) (UniProt O60894+Q16602); experiment: CGRP (h) Eurofins-Cerep binding assay; assay type: protein-complex assay; parameters: ligand concentration 0.03 nM; conditions: filed as agonist, Compound concentration 10.0 uM
[16] = molecular target: Fibroblast growth factor receptor 3 (Homo sapiens) (UniProt P22607); conditions: Compound concentration 1000.0 nM
[17] = molecular target: T1, Alpha-2B adrenergic receptor (Homo sapiens) (UniProt P18089); experiment: Alpha2B (h) Eurofins-Cerep binding assay; parameters: ligand concentration 2.5 nM; conditions: filed as antagonist, Compound concentration 10.0 uM
T1 sequence (whole entry): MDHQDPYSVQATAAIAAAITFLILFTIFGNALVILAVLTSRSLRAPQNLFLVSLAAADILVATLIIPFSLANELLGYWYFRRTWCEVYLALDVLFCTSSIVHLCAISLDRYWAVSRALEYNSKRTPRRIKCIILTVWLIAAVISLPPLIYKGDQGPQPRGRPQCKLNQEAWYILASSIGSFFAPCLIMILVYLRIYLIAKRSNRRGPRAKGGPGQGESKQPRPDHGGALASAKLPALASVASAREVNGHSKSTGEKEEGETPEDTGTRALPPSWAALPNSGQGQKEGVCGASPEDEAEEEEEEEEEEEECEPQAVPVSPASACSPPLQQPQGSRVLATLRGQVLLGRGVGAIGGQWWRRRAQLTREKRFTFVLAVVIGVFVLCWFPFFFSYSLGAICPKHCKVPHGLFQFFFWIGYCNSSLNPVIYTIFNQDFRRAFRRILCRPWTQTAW

[18] = molecular target: 5-hydroxytryptamine receptor 7 (Homo sapiens) (UniProt P34969); experiment: 5-HT7 (h) Eurofins-Cerep binding assay; parameters: ligand concentration 4 nM; conditions: filed as agonist, Compound concentration 10.0 uM
[19] = molecular target: Serine/threonine-protein kinase 25 (Homo sapiens) (UniProt O00506); conditions: Compound concentration 1000.0 nM
[20] = molecular target: Serine/threonine-protein kinase ULK2 (Homo sapiens) (UniProt Q8IYT8); conditions: Compound concentration 1000.0 nM
[21] = molecular target: Dual specificity tyrosine-phosphorylation-regulated kinase 1A (Homo sapiens) (UniProt Q13627); conditions: Compound concentration 1000.0 nM
[22] = test system: Receptor-type tyrosine-protein kinase FLT3 (Homo sapiens), P36888 [D835Y]; conditions: Compound concentration 1000.0 nM
[23] = molecular target: Dual serine/threonine and tyrosine protein kinase (Homo sapiens) (UniProt Q6XUX3); conditions: Compound concentration 1000.0 nM
[24] = molecular target: Mitogen-activated protein kinase kinase kinase 3 (Homo sapiens) (UniProt Q99759); conditions: Compound concentration 1000.0 nM
[25] = molecular target: Serine/threonine-protein kinase mTOR (Homo sapiens) (UniProt P42345); conditions: Compound concentration 1000.0 nM
[26] = molecular target: Serine/threonine-protein kinase VRK2 (Homo sapiens) (UniProt Q86Y07); conditions: Compound concentration 1000.0 nM
[27] = molecular target: Sodium- and chloride-dependent GABA transporter 1 (Rattus norvegicus) (UniProt P23978); experiment: GABA transporter Eurofins-Cerep binding assay; parameters: ligand concentration 10 nM; conditions: filed as antagonist, Compound concentration 10.0 uM
[28] = molecular target: T2, Alpha-1A adrenergic receptor (Homo sapiens) (UniProt P35348); experiment: Alpha1A (h) Eurofins-Cerep binding assay; parameters: ligand concentration 0.1 nM; conditions: filed as antagonist, Compound concentration 10.0 uM
T2 sequence (whole entry): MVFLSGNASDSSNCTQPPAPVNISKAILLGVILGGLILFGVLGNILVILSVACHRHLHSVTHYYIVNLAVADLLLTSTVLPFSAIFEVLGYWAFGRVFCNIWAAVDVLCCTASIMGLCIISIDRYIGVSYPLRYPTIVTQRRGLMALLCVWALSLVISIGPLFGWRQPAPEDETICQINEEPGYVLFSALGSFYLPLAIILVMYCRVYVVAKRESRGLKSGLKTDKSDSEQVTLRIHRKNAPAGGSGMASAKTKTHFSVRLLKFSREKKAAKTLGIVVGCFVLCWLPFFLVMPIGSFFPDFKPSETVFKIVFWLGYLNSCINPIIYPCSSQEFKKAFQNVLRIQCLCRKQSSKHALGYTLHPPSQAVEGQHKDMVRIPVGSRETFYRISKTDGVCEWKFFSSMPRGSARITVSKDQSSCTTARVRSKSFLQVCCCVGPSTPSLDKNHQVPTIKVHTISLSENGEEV

[29] = molecular target: Phosphatidylinositol 4,5-bisphosphate 3-kinase catalytic subunit beta isoform (Homo sapiens) (UniProt P42338); conditions: Compound concentration 1000.0 nM
[30] = molecular target: Fibroblast growth factor receptor 2 (Homo sapiens) (UniProt P21802); conditions: Compound concentration 1000.0 nM
Chain of Fibroblast growth factor receptor 2 (Homo sapiens) (P21802 22-821 limits assumed): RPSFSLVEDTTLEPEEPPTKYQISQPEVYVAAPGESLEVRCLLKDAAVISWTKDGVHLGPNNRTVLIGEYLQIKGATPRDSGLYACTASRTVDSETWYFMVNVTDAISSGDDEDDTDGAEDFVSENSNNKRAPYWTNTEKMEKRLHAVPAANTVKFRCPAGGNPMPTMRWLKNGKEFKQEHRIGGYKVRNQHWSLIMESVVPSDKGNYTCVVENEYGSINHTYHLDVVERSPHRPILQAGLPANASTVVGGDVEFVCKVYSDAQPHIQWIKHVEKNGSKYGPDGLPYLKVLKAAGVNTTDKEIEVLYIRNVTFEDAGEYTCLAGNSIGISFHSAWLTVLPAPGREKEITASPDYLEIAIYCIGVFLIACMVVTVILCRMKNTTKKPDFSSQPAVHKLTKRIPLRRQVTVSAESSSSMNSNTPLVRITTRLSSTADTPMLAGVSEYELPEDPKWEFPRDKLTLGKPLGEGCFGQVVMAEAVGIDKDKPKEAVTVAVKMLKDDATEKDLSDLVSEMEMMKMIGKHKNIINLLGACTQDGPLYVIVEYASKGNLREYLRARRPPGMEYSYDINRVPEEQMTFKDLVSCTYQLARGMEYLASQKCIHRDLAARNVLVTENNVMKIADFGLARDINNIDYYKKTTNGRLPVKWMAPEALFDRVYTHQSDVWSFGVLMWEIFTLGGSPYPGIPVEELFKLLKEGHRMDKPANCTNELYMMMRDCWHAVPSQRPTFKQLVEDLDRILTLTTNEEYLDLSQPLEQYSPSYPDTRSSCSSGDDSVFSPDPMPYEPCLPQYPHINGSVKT

[31] = molecular target: SRSF protein kinase 1 (Homo sapiens) (UniProt Q96SB4); conditions: Compound concentration 1000.0 nM
[32] = molecular target: Serine/threonine-protein kinase Nek1 (Homo sapiens) (UniProt Q96PY6); conditions: Compound concentration 1000.0 nM

Chain of Tyrosine-protein kinase Lyn (Homo sapiens) (P07948 2-512 limits assumed): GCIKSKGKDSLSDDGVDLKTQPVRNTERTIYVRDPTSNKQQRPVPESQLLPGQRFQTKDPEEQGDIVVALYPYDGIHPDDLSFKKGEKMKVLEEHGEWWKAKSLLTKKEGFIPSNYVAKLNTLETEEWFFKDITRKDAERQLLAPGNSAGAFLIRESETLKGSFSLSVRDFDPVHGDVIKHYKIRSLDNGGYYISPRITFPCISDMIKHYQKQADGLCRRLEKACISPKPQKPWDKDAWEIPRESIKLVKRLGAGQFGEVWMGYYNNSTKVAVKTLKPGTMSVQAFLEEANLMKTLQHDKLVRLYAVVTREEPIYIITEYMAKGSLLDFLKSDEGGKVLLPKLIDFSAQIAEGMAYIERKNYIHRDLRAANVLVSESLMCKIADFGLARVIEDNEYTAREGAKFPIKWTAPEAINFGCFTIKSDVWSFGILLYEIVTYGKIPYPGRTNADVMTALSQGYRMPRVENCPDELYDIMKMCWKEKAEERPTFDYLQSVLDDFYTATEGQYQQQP

SMILES | residual activity [1] | residual activity [2] | residual activity [3] | residual activity [4] | residual activity [5] | residual activity [6] | residual activity [7] | residual activity [8] | residual activity [9] | residual activity [10] | residual activity [11] | % Inhibition of Control Specific Binding (Mean n=2) [12] | residual activity [13] | residual activity [14] | % Inhibition of Control Specific Binding (Mean n=2) [15] | residual activity [16] | % Inhibition of Control Specific Binding (Mean n=2) [17] | % Inhibition of Control Specific Binding (Mean n=2) [18] | residual activity [19] | residual activity [20] | other results
CCCOc1ccc([C@H]2[C@H](C(=O)O)[C@@H](c3ccc4c(c3)OCO4)CN2CC(=O)Nc2c(CC)cccc2CC)cc1 [A-192621] | 93% | 80% | 90% | 98% | 73% | 89% | 96% | 100% | 100% | 74% | 75% | 8.3% | 98% | 84% | -6.1% | 100% | 7.4% | 1.9% | 100% | 55% | residual activity [21]: 73%; residual activity [22]: 100%; residual activity [23]: 73%; residual activity [24]: 74%; residual activity [25]: 77%; residual activity [26]: 61%; % Inhibition of Control Specific Binding (Mean n=2) [27]: -12%; % Inhibition of Control Specific Binding (Mean n=2) [28]: 5%; residual activity [29]: 73%; residual activity [30]: 100%; residual activity [31]: 95%; residual activity [32]: 87%
CCCOc1ccc([C@@H]2[C@@H](C(=O)O)[C@H](c3ccc4c(c3)OCO4)CN2CC(=O)Nc2c(CC)cccc2CC)cc1 [A-1806262] | 94% | 95% | 96% | 99% | 76% | 91% | 100% | 100% | 100% | 100% | 81% | 4.2% | 94% | 73% | -0.3% | 100% | 1.5% | 0.4% | 100% | 76% | residual activity [21]: 86%; residual activity [22]: 100%; residual activity [23]: 82%; residual activity [24]: 85%; residual activity [25]: 100%; residual activity [26]: 59%; % Inhibition of Control Specific Binding (Mean n=2) [27]: -17.3%; % Inhibition of Control Specific Binding (Mean n=2) [28]: 3.7%; residual activity [29]: 92%; residual activity [30]: 100%; residual activity [31]: 94%; residual activity [32]: 100%
